Consider five compounds from patent publication US12679878B2, “CRF2 receptor agonists and their use in therapy” (SANOFI, priority 2020, dated 2026).

This assay addresses T1, human CRF2α receptor (Homo sapiens, UniProt Q13324).
T1 construct: expressed in transfected cells; host or cells: TeloHEAC
T1 sequence (Q13324 1-411): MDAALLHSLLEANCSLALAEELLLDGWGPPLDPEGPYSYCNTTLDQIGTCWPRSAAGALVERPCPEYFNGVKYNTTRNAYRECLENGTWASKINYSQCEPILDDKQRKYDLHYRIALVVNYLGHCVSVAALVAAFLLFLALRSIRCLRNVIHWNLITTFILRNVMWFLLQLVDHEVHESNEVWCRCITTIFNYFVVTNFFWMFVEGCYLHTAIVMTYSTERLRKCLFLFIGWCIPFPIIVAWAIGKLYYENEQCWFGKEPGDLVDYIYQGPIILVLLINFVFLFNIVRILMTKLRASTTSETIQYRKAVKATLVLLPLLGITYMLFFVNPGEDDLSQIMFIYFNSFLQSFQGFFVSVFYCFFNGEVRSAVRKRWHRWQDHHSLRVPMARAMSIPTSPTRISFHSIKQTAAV
Description: cAMP agonism at human CRF2 α receptor in TeloHEAC cells (Example 7). The settings on record: cAMP HTRF, TeloHEAC cells stably expressing human CRF2 α, 0% HSA; read-out: EC50 [nM], 0% HSA. The format is cell-based. Here is the method: Agonism of compounds for human corticotropin-releasing factor 2α (CRF2 α receptor) was determined by functional assays measuring CAMP response of a TeloHEAC cell line stably expressing human CRF2 α receptor.
Cells were grown in a T175 culture flask placed at 37° C. to near confluence in medium (DMEM/10% FBS) and collected in 2 ml vials in cell culture medium containing 10% DMSO in a concentration of 10-50 million cells/ml. Each vial contained 1.8 ml cells. The vials were slowly frozen to −80° C. in isopropanol and then transferred in liquid nitrogen for storage. Prior to use, frozen cells were thawed quickly at 37° C. and washed (5 min at 900 rpm) with 20 ml cell buffer (1×HBSS; 20 mM HEPES; 0% or 0.1% HSA). Cells were resuspended in assay buffer (cell buffer plus 2 mM IBMX) and adjusted to a cell density of 1 million cells/ml. For measurement, 5 μl cells (final […]) and 5 μL of test compound were added to a 384-well plate, followed by incubation for 30 minutes at room temperature.
The CAMP content of cells was determined using a kit from Cisbio Corp. (cat. no. 62AM4PEC) based on HTRF (Homogenous Time Resolved Fluorescence). After addition of HTRF reagents diluted in lysis buffer (kit components), the plates were incubated for 1 h, followed by measurement of the fluorescence ratio at 665/620 nm. The percent activity value (E %) was calculated by setting 1000 nM of urocortin 2 (UCN2) as 100%. The in vitro potency of the compounds was quantified by determining the concentrations that caused 50% activation of maximal response (EC50).
(In general: In TR-FRET formats the signal depends on donor and acceptor labels being close together.)

Structures are written as SMILES. Starred links: 1 amine or outer side, 2 acyl side, 3 side chain; linkers in the order of their positions; H or OH if unused. Non-standard residues stand in square brackets, D forms with d. Residues, ends and D or L forms follow the SMILES beside them. Groups on a side chain read outwards from the residue. *: point of attachment. C18 diacid = O=C(O)CCCCCCCCCCCCCCCCC(=O)*; γGlu = O=C(O)[C@H](CCC(=O)[*:2])N[*:1]; Palmitoyl = CCCCCCCCCCCCCCCC(=O)*; AEEA = NCCOCCOCC(=O)O; Aib = CC(C)(N)C(=O)O

As usually defined, the EC50 is the concentration needed to bring the measured effect to its halfway point. For the compound `CCCCCCCCCCCCCCCC(=O)N[C@@H](CCC(=O)NCCCC[C@H](NC(=O)[C@H](CC(C)C)NC(=O)CNC(=O)[C@@H](NC(=O)[C@@H]1CCCN1C(=O)[C@@H](NC(=O)[C@H](CC(=O)O)NC(=O)[C@H](CC(C)C)NC(=O)[C@H](CO)NC(=O)[C@H](CC(C)C)NC(=O)[C@@H](NC(=O)[C@@H](N)[C@@H](C)CC)C(C)C)C(C)C)[C@@H](C)CC)C(=O)N[C@@H](CCC(N)=O)C(=O)N[C@H](C(=O)N[C@@H](CC(C)C)C(=O)N[C@@H](CC(C)C)C(=O)N[C@@H](CCC(=O)O)C(=O)N[C@@H](CCC(N)=O)C(=O)N[C@@H](CCC(=O)O)C(=O)N[C@@H](CCCCN)C(=O)N[C@@H](CCC(N)=O)C(=O)N[C@@H](CCC(=O)O)C(=O)N[C@@H](CCCCN)C(=O)N[C@@H](CCC(=O)O)C(=O)N[C@@H](CCCCN)C(=O)N[C@@H](CCC(N)=O)C(=O)N[C@@H](CCC(N)=O)C(=O)N[C@@H](C)C(=O)N[C@@H](CCC(=O)O)C(=O)N[C@H](C(=O)N[C@@H](CC(N)=O)C(=O)N[C@@H](C)C(=O)N[C@@H](CCC(N)=O)C(=O)N[C@H](C(=O)N[C@@H](CC(C)C)C(=O)N[C@@H](C)C(=O)N[C@@H](CCC(N)=O)C(=O)N[C@H](C(N)=O)C(C)C)[C@@H](C)CC)[C@@H](C)O)[C@@H](C)CC)C(=O)O` [compound 1] (H-IVLSLDVPIGLK([γGlu-Palmitoyl])QILLEQEKQEKEKQQAETNAQILAQV-NH2; N-terminus assumed), the EC50 turned out to be 0.01 nM. The value for `CCCCCCCCCCCCCCCC(=O)N[C@@H](CCC(=O)NCCCC[C@H](NC(=O)[C@H](CC(C)C)NC(=O)[C@H](CCCCN)NC(=O)[C@@H](NC(=O)[C@@H]1CCCN1C(=O)[C@H](NC(=O)[C@H](CC(=O)O)NC(=O)[C@H](CC(C)C)NC(=O)[C@H](CO)NC(=O)[C@H](CC(C)C)NC(=O)[C@@H](NC(=O)[C@@H](N)[C@@H](C)CC)C(C)C)C(C)C)[C@@H](C)O)C(=O)N[C@@H](CCC(N)=O)C(=O)N[C@@H](CCCCN)C(=O)N[C@@H](CC(C)C)C(=O)N[C@@H](CC(C)C)C(=O)N[C@@H](CCCCN)C(=O)N[C@@H](CCC(N)=O)C(=O)N[C@@H](CCC(=O)O)C(=O)N[C@@H](CCCNC(=N)N)C(=O)N[C@@H](CCC(N)=O)C(=O)N[C@@H](CCCNC(=N)N)C(=O)N[C@@H](CCCCN)C(=O)N[C@@H](CCC(=O)O)C(=O)N[C@@H](CCCNC(=N)N)C(=O)N[C@@H](CCC(=O)O)C(=O)N[C@@H](CCC(N)=O)C(=O)N[C@@H](C)C(=O)N[C@@H](CCC(=O)O)C(=O)N[C@@H](CCCCN)C(=O)N[C@@H](CC(N)=O)C(=O)NC(C)(C)C(=O)N[C@@H](CCCNC(=N)N)C(=O)N[C@H](C(=O)N[C@@H](CC(C)C)C(=O)N[C@@H](CCC(=O)O)C(=O)N[C@@H](CCCNC(=N)N)C(=O)N[C@H](C(N)=O)C(C)C)[C@@H](C)CC)C(=O)O` [compound 31] (H-IVLSLD[dV]PTKLK([γGlu-Palmitoyl])QKLLKQERQRKEREQAEKN[Aib]RILERV-NH2; N-terminus assumed) was 0.01 nM; that for `CCCCCCCCCCCCCCCC(=O)N[C@@H](CCC(=O)NCCCC[C@H](NC(=O)[C@H](CC(C)C)NC(=O)[C@H](CCCCN)NC(=O)[C@@H](NC(=O)[C@@H]1CCCN1C(=O)[C@H](NC(=O)[C@H](CC(=O)O)NC(=O)[C@H](CC(C)C)NC(=O)[C@H](CO)NC(=O)[C@H](CC(C)C)NC(=O)[C@@H](NC(=O)[C@@H](N)[C@@H](C)CC)C(C)C)C(C)C)[C@@H](C)O)C(=O)N[C@@H](CCC(N)=O)C(=O)N[C@@H](CCCCN)C(=O)N[C@@H](CC(C)C)C(=O)N[C@@H](CC(C)C)C(=O)N[C@@H](CCCCN)C(=O)N[C@@H](CCC(N)=O)C(=O)N[C@@H](CCC(=O)O)C(=O)N[C@@H](CCCNC(=N)N)C(=O)N[C@@H](CCC(N)=O)C(=O)N[C@@H](CCCNC(=N)N)C(=O)N[C@@H](CCCCN)C(=O)N[C@@H](CCC(=O)O)C(=O)N[C@@H](CCCNC(=N)N)C(=O)N[C@@H](CCC(=O)O)C(=O)N[C@@H](CCC(N)=O)C(=O)N[C@@H](C)C(=O)N[C@@H](CCC(=O)O)C(=O)N[C@@H](CCCCN)C(=O)N[C@@H](CC(N)=O)C(=O)N[C@H](C(=O)N[C@@H](CCCNC(=N)N)C(=O)N[C@H](C(=O)N[C@@H](CC(C)C)C(=O)N[C@@H](CCC(=O)O)C(=O)N[C@@H](CCCNC(=N)N)C(=O)N[C@H](C(N)=O)C(C)C)[C@@H](C)CC)[C@@H](C)O)C(=O)O` [compound 33] (H-IVLSLD[dV]PTKLK([γGlu-Palmitoyl])QKLLKQERQRKEREQAEKNTRILERV-NH2) was 0.2 nM. The value for `CC[C@H](C)[C@H](NC(=O)[C@H](CCC(N)=O)NC(=O)[C@H](CCCCN)NC(=O)[C@H](CC(N)=O)NC(=O)[C@@H](NC(=O)[C@H](CCCCN)NC(=O)[C@H](C)NC(=O)[C@H](CCCCN)NC(=O)[C@H](CCC(N)=O)NC(=O)[C@H](CCCNC(=N)N)NC(=O)[C@H](CCC(N)=O)NC(=O)[C@H](CCCCN)NC(=O)[C@H](CCCCN)NC(=O)[C@H](CCC(N)=O)NC(=O)[C@H](CCCCN)NC(=O)[C@H](CCC(=O)O)NC(=O)[C@H](CCC(N)=O)NC(=O)[C@H](CCCCN)NC(=O)[C@H](CC(C)C)NC(=O)[C@H](CC(C)C)NC(=O)[C@H](CCCCN)NC(=O)[C@H](CCC(N)=O)NC(=O)[C@H](CCCCNC(=O)COCCOCCNC(=O)COCCOCCNC(=O)CC[C@H](NC(=O)CCCCCCCCCCCCCCCCC(=O)O)C(=O)O)NC(=O)[C@@H](NC(=O)[C@H](CCCCN)NC(=O)[C@@H](NC(=O)[C@@H]1CCCN1C(=O)[C@@H](NC(=O)[C@H](CC(=O)O)NC(=O)[C@H](CC(C)C)NC(=O)[C@H](CO)NC(=O)[C@H](CC(C)C)NC(=O)[C@@H](NC(=O)[C@@H](N)Cc1ccccc1)[C@@H](C)O)C(C)C)[C@@H](C)O)[C@@H](C)CC)[C@@H](C)O)C(=O)N[C@@H](CC(C)C)C(=O)N[C@@H](CCC(=O)O)C(=O)N[C@@H](CCC(N)=O)C(=O)N[C@H](C(N)=O)C(C)C` [compound 34] (H-FTLSLDVPTKIK([AEEA-AEEA-γGlu-C18 diacid])QKLLKQEKQKKQRQKAKTNKQILEQV-NH2; N-terminus assumed) was 6.88 nM; that for `CC[C@H](C)[C@H](N)C(=O)N[C@H](C(=O)N[C@@H](CC(C)C)C(=O)N[C@@H](CO)C(=O)N[C@@H](CC(C)C)C(=O)N[C@@H](CC(=O)O)C(=O)N[C@H](C(=O)N1CCC[C@H]1C(=O)N[C@H](C(=O)N[C@@H](CCCCN)C(=O)N[C@@H](CC(C)C)C(=O)N[C@@H](CCCCNC(=O)COCCOCCNC(=O)COCCOCCNC(=O)CC[C@H](NC(=O)CCCCCCCCCCCCCCCCC(=O)O)C(=O)O)C(=O)N[C@@H](CCC(N)=O)C(=O)N[C@@H](CCCCN)C(=O)N[C@@H](CC(C)C)C(=O)N[C@@H](CC(C)C)C(=O)N[C@@H](CCCCN)C(=O)N[C@@H](CCC(N)=O)C(=O)N[C@@H](CCC(=O)O)C(=O)N[C@@H](CCCNC(=N)N)C(=O)N[C@@H](CCC(N)=O)C(=O)N[C@@H](CCCNC(=N)N)C(=O)N[C@@H](CCCCN)C(=O)N[C@@H](CCC(=O)O)C(=O)N[C@@H](CCCNC(=N)N)C(=O)N[C@@H](CCC(N)=O)C(=O)N[C@@H](CCC(N)=O)C(=O)N[C@@H](C)C(=O)N[C@@H](CCC(=O)O)C(=O)N[C@H](C(=O)N[C@@H](CC(N)=O)C(=O)N[C@@H](CCCCN)C(=O)N[C@@H](CCCNC(=N)N)C(=O)N[C@H](C(=O)N[C@@H](CC(C)C)C(=O)N[C@@H](CCC(=O)O)C(=O)N[C@@H](CCCNC(=N)N)C(=O)N[C@H](C(N)=O)C(C)C)[C@@H](C)CC)[C@@H](C)O)[C@@H](C)O)C(C)C)C(C)C` [compound 37] (H-IVLSLDVPTKLK([AEEA-AEEA-γGlu-C18 diacid])QKLLKQERQRKERQQAETNKRILERV-NH2; N-terminus assumed) was 1.6 nM.
